Results taken from US8703104B2, “Use of metal astringents for the treatment of hairy heel warts” (Ecolab USA Inc, priority 2007, dated 2014).
Where two headings read alike, the source gives them in different places.

Test system: hairy heel wart lesions on the cows
[1] = Day 0, prior to first treatment
[2] = Grading Period 1 (Day 0), one day prior to first treatment

With O=S(=O)([O-])[O-].[Cu+2] [CuSO4, copper sulfate] the “Lesion Appearance Score Distribution: number of cows with Grade Score 4 (Dead lesion)” value (“Lesion Appearance Score Distribution” below) [1] was 1, the “Lesion Pain Score Distribution: number of cows with Grade Score 1 (Minor pain)” value (from here on “Lesion Pain Score Distribution: number”) [1] was 10 and the “Lesion Size Score Distribution: number of cows with Grade Score 1 (Dime Size)” value (“Lesion Size Score Distribution … (Dime Size)” for short) [1] was 6. For the same compound, the “Lesion Size Score Distribution: number of cows with Grade Score 2 (Quarter Size)” value (shortened to “Lesion Size Score Distribution … (Quarter Size)”) [1] was 5, the “Locomotion Score Distribution: number of cows with Grade Score 1 (Stands and walks normal)” value (shortened to “Locomotion Score Distribution: number”) [1] was 5 and the “Lesion Appearance Score Distribution” value (Day 5) was 5. The “Lesion Pain Score Distribution: number” value (Day 5) was 6, the “Lesion Size Score Distribution … (Dime Size)” value (Day 5) was 4 and the “Lesion Size Score Distribution … (Quarter Size)” value (Day 5) was 4. The “Locomotion Score Distribution: number” value (Day 5) was 3, the “Lesion Appearance Score Distribution” value (Day 10) was 6 and the “Lesion Pain Score Distribution: number” value (Day 10) was 9. For the same compound, the “Lesion Size Score Distribution … (Dime Size)” value (Day 10) was 10, the “Lesion Size Score Distribution … (Quarter Size)” value (Day 10) was 1 and the “Locomotion Score Distribution: number” value (Day 10) was 3. The “Lesion Appearance Score Distribution” value (Day 14) was 5, the “Lesion Pain Score Distribution: number” value (Day 14) was 5 and the “Lesion Size Score Distribution … (Dime Size)” value (Day 14) was 4. The “Lesion Size Score Distribution … (Quarter Size)” value (Day 14) was 6, the “Locomotion Score Distribution: number” value (Day 14) was 8 and the “Lesion Appearance Score Distribution” value (Day 19) was 3. For the same compound, the “Lesion Pain Score Distribution: number” value (Day 19) was 5, the “Lesion Size Score Distribution … (Dime Size)” value (Day 19) was 8 and the “Lesion Size Score Distribution … (Quarter Size)” value (Day 19) was 3. For the same compound, the “Locomotion Score Distribution: number” value (Day 19) was 8, the “Average lesion color score (scale 0 to 5)” value (“Average lesion color score” for short) [2] was 1.64 and the “Average lesion pain score (scale 0 to 2)” value [2] was 1.09. The “Average locomotion score (scale 1-5)” value [2] was 1.82, the “Average lesion color score” value (Grading Period 2 (Day 5)) was 2.20 and the “Average lesion pain score (scale 0 to 2)” value (Grading Period 2 (Day 5)) was 0.60. The “Average lesion size score (scale 0 to 3)” value (Grading Period 2 (Day 5)) was 1.80, the “Average locomotion score (scale 1-5)” value (Grading Period 2 (Day 5)) was 1.90 and the “Average lesion color score” value (Grading Period 3 (Day 10)) was 2.45. For the same compound, the “Average lesion pain score (scale 0 to 2)” value (Grading Period 3 (Day 10)) was 1.00, the “Average lesion size score (scale 0 to 3)” value (Grading Period 3 (Day 10)) was 1.09 and the “Average locomotion score (scale 1-5)” value (Grading Period 3 (Day 10)) was 1.82. The “Average lesion color score” value (Grading Period 4 (Day 14)) was 3.10, the “Average lesion pain score (scale 0 to 2)” value (Grading Period 4 (Day 14)) was 0.50 and the “Average lesion size score (scale 0 to 3)” value (Grading Period 4 (Day 14)) was 1.60. The “Average locomotion score (scale 1-5)” value (Grading Period 4 (Day 14)) was 1.20, the “Average lesion pain score (scale 0 to 2)” value (Grading Period 5 (Day 19)) was 0.45 and the “Average lesion size score (scale 0 to 3)” value (Grading Period 5 (Day 19)) was 1.27. For the same compound, the “Average locomotion score (scale 1-5)” value (Grading Period 5 (Day 19)) was 1.55.
